Measured values from patent publication US20260041093A1, “Ionic Derivatives Of Aromatic Carboxylic Acid For Use As Plant Stimulants, Method For Stimulating Plants And Use Of These Derivatives For Manufacturing Compositions For Stimulating Plants” (FUNDACJA UNIWERSYTETU IM. ADAMA MICKIEWICZA W POZNANIU, priority 2022, published 2026).
Read-outs that look alike come from different tables or passages of the source.

How the values were obtained:
tomato = assay: Greenhouse tomato sprayed three times: yield, health-promoting substances, leaf chlorophyll (Example 2); format: in vivo; conditions: 80 mg/L, benzothiadiazole salt 30 mg/L, chitosan lactate 50 mg/L; for Chlorophyll content (SPAD), Treatment #1: before treatment #1; for Chlorophyll content (SPAD), Treatment #2: before treatment #2; for Chlorophyll content (SPAD), Treatment #3: before treatment #3; for Average fruit weight per plant / Average weight of marketable fruit / Commercial yield / Number of fruits per plant / Total yield: spray 3x; for Calcium / Lycopene / Magnesium / Vit. C / Vit. E / °Brix (sugar content of the liquid expressed in degree of Brix): tomato fruits
Protocol: Biostimulant properties were evaluated for the following stimulants: […] The evaluation of stimulant properties included the influence of tested substances on tomato yield, content of health-promoting substances in yield and chlorophyll content in tomato leaves. […] The untreated control plants were sprayed with distilled water. During the experiment, total yield weight, commercial and non-commercial yield and average commercial fruit weight, number of fruits per plant and average fruit weight per plant were evaluated. […] Chlorophyll was measured before each treatment and one day after each treatment using Minolta's SPAD-502 chlorophyll meter.

[1] = test system: Pseudomonas syringae pv. Tomato (Pst); assay: Protection of tomato against Pseudomonas syringae pv. Tomato by spraying (Example 33); format: in vivo, Lycopersicon Esculentum Mill tomato; conditions: 80 mg/L, sprayed twice; 2 weeks after infection
Protocol: Tomato plants, at the stage of the first pair of developed true leaves, were watered twice with a solution of substance 1-6 at a concentration of 80 mg/L, at a weekly interval. The control was tomato plants watered only with water. One week after the second treatment, a suspension of Pst bacteria at a concentration of 10^5 was spot-injected into the leaves using an insulin syringe (without a needle). The suspension was prepared from a two-day culture of Pst on solid medium. Protection against biotic stress was evaluated by the proliferation of bacteria in the leaves at the insertion site and the formation of a necrotic spot, compared to the control.
The procedure was followed as in Example 32, with the plants sprayed.

powdery mildew fungus [2] = assay: Direct effect on fungal infectivity (Example 23); format: in vivo; conditions: tobacco plant, 5 days after infection with solution of fungus and test substance; control 100
Protocol: Proceeding as in Example 21, the test was performed on the powdery mildew fungus, which was then incubated on the medium.

[3] = test system: Tobacco Mosaic Virus (TMV); assay: Protection of tobacco against TMV infection by spraying twice (Example 25); format: in vivo, Nicotiana tabacum cv. Xanthi; conditions: sprayed twice, 7 days after infection
Text: 5-chlorosalicylate of choline; 3. 3,5-dichlorosalicylate of choline; 4. 3-chlorosalicylate of sodium, 5. 3-chlorosalicylate of potassium, 6. 3-chlorosalicylate of calcium, 7.

powdery mildew fungus [4] = assay: Protection of tomato against powdery mildew by spraying (Example 35); format: in vivo, Lycopersicon Esculentum Mill tomato; conditions: 40 mg/l, sprayed twice; 2 weeks after pathogen inoculation
Protocol: […] The control was tomato plants watered only with water. […] The suspension was prepared from culture on solid medium. Protection against biotic stress was evaluated by comparing the area of leaves affected by infection.
Proceeded in the way as described in Example 34, with the difference that plants were sprayed and not watered.

[5] = test system: Tobacco Mosaic Virus (TMV); assay: Protection of tobacco against TMV infection by watering twice (Example 24); format: in vivo, Nicotiana tabacum cv. Xanthi; conditions: watered twice, 7 days after infection
Protocol: Tobacco plants (Nicotiana tabacum) cv. […] 3,5-dichlorosalicylate of choline; 4. 3-chlorosalicylate of sodium, 5. 3-chlorosalicylate of potassium, 6. 3-chlorosalicylate of calcium, 7. 3-chlorosalicylate of magnesium at a concentration of 10 or 40 or 80 mg/L, at one-week intervals. The control was tobacco plants watered only with water. One week after the second treatment of the plants with the preparation, mechanical infection of the leaves with Tobacco Mosaic Virus (TMV) was carried out. This consisted of rubbing carborundum-sprinkled leaves several times with fingers soaked in a suspension of purified virus at a concentration of about 2 μg/ml. In order to evaluate the effectiveness of the tested substances in protection against biotic stresses, the TMV model and tobacco cv. Xanthi characterized by an interaction in the form of hypersensitivity phenomenon, i.e. the formation of easily quantifiable necrotic spots, were used.

[6] = test system: Pseudomonas syringae pv. Tomato (Pst); conditions: 2 weeks after infection
Protocol: Tobacco plants at the stage of 3 developed leaves were watered twice, at a weekly interval, with a solution of test substances 1-11 at concentrations of 10, 40, 80 mg/L. The control was tobacco plants watered with water only. One week after the second treatment, a suspension of Pst bacteria at a concentration of 10^5 was spotted into the leaves using an insulin syringe (without a needle). The suspension was prepared from a two-day culture of Pst on solid medium. Protection against biotic stress was evaluated by the proliferation of bacteria in the leaves at the insertion site and the formation of a necrotic spot, compared to the control.
We proceeded as in Example 30, with the effectiveness of protection against biotic stress tested against bacterial cell concentrations raised to about 10^6.

[7] = test system: Pseudomonas syringae pv. Tomato; assay: Direct effect on bacterial infectivity (Example 22); format: in vivo; conditions: tobacco plant, 5 days after infection with solution of bacteria and test substance; control 100
Protocol: Proceeding as in example 21, Pseudomonas syringae pv. Tomato bacteria were tested and incubated in bacterial medium.

TMV [8] = assay: Protection of tobacco against TMV, single spray, comparison with BION (Example 26); format: in vivo, Nicotiana tabacum cv. Xanthi; conditions: sprayed once, infected a week later
Protocol: Tobacco plants (Nicotiana tabacum) cv. Xanthi at the stage of three developed leaves were sprayed once with solutions of substance 1-5 or BION™ at concentrations of 10, 40, 80 mg/L. A week later, they were mechanically infected with TMV by rubbing the leaves with a square soaked in a suspension of purified virus, with a concentration of about 2 μg/ml. The level of protection against the effects of biotic stress was evaluated by comparing the number of necrotic spots caused by TMV on the leaves of plants treated with substances 1-5 and BION™ and control plants.
A reduction in the number of necrotic spots indicates protection from the effects of the biotic agent on the plant.

TMV [9] = assay: Protection of tobacco against TMV infected 3 weeks after the last treatment (Example 27); format: in vivo; conditions: infected with TMV 3 weeks after the last treatment
Protocol: They proceeded as in Example 24, using substances 1-4 at concentrations of 10, 40 and 80 mg/L for treatment, with treated and control plants divided into 3 batches and their leaves infected with the virus 1, 2 and 3 weeks after the last treatment, respectively. […] A similar effect occurred with spraying.

Row | Structure (SMILES) | Chlorophyll content (SPAD), a day after treatment #1 (tomato) [b] | Chlorophyll content (SPAD), a day after treatment #2 (tomato) [b] | Chlorophyll content (SPAD), a day after treatment #3 (tomato) [b] | Chlorophyll content (SPAD), Treatment #1 (tomato) [a] | Chlorophyll content (SPAD), Treatment #2 (tomato) [a] | Chlorophyll content (SPAD), Treatment #3 (tomato) [a] | Average fruit weight per plant (tomato) [b g] | Average weight of marketable fruit (tomato) [b kg/m^2] | Commercial yield (tomato) [b kg/m^2] | Number of fruits per plant (tomato) [b] | Total yield (tomato) [b kg/m^2] | Calcium (tomato) [a mg/kg] | Lycopene (tomato) [b mg/kg] | Magnesium (tomato) [b mg/kg] | Vit. C (tomato) [c mg/kg] | Vit. E (tomato) [b mg/kg] | °Brix (sugar content of the liquid expressed in degree of Brix) (tomato) [b g] | other results
1 | C[N+](C)(C)CCO.O=C([O-])c1cccc2nnsc12 | 63.5 | 61.3 | 63.2 | 51.2 | 51.4 | 51.1 | 148.70 | 26.13 | 18.13 | 4.17 | 18.83 | 91.4 | 36.5 | 106.3 | 200.1 | 25.9 | 5.92 | –
2 | C[N+](C)(C)CCO.O=C([O-])c1cccc(Cl)c1O [choline 3-chlorosalicylate] | 61.4 | 60.3 | 62.5 | 50.2 | 49.4 | 50.9 | 154.23 | 26.25 | 18.4 | 4.30 | 19.13 | 97.2 | 36.4 | 104.5 | 191.5 | 25.6 | 5.91 | % reduction in necrotic spots compared to control [1]: 93%; % of necrotic spots (powdery mildew fungus [2]): 100%; % reduction in necrotic spots compared to control ([3]; 10 mg/L): 80%; % reduction in necrotic spots compared to control ([3]; 40 mg/L): 100%; % reduction in necrotic spots compared to control ([3]; 80 mg/L): 85%; Reduction in necrotic spots (white patches) compared to control (powdery mildew fungus [4]): 72%; % reduction in necrotic spots compared to control ([5]; 10 mg/L): 80%; % reduction in necrotic spots compared to control ([5]; 40 mg/L): 100%; % reduction in necrotic spots compared to control ([5]; 80 mg/L): 100%; % reduction in necrotic spots compared to control ([6]; 10 mg/L, watered twice, Pst 10^5): 65%; % reduction in necrotic spots compared to control ([6]; 40 mg/L, watered twice, Pst 10^5): 72%; % reduction in necrotic spots compared to control ([6]; 80 mg/L, bacterial cell concentration raised to about 10^6): 85%; % reduction in necrotic spots compared to control ([6]; 80 mg/L, watered twice, Pst 10^5): 89%; % of necrotic spots [7]: 99%; % reduction in necrotic spots compared to control (TMV [8]; 10 mg/L): 58%; % reduction in necrotic spots compared to control (TMV [8]; 40 mg/L): 92%; % reduction in necrotic spots compared to control (TMV [8]; 80 mg/L): 98%; % reduction in necrotic spots compared to control (TMV [9]; 10 mg/L): 58%; % reduction in necrotic spots compared to control (TMV [9]; 40 mg/L): 92%; % reduction in necrotic spots compared to control (TMV [9]; 80 mg/L): 98%
